# In ChEMBL document CHEMBL1201862, “PubChem BioAssay data set” (2004):
# The source made the active and inactive calls. Rule as the data show it, for most assays here: actives have a measured EC50 and inactives only a lower limit.
# What was measured:
# Bcl-2-related protein A1 [1] = target: T1, Bcl-2-related protein A1 (Mus musculus, UniProt Q07440); assay: Bfl-1 binding inhibitors, SAR follow-up, biochemical, fluorescence polarization (AID 1070)
# Bcl-2-related protein A1 [2] = target: T1, Bcl-2-related protein A1; assay: Bfl-1 inhibitors blocking BH3 peptide binding, confirmation, biochemical, TR-FRET, mouse Bfl-1 (AID 621);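 also: TR-FRET binding of GST-Bfl-1 to FITC-labelled Bid peptide via terbium antibody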
# Streptococcus = assay: Group A Streptococcus viability loss, dose response, counter-screen for streptokinase expression inhibitor project, luminescence, BacTiterGlo (AID 1915); format: functional, organism-based;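 also: potency for reduction of bacterial viability or growth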
# [3] = test system: Streptococcus sp. 'group A'; assay: growth inhibition of control SK(-) GAS strain, dose response, counter-screen for streptokinase expression inhibitor project, luminescence, kanamycin, BacTiterGlo, confirmation (AID 1900); format: functional, organism-based
# Streptokinase A = target: T2, Streptokinase A (Streptococcus pyogenes serotype M1, UniProt P10520); assay: S. pyogenes streptokinase expression inhibitors, potency, dose response, plasminogen activation absorbance, OD405 (AID 1914); format: functional, Streptococcus pyogenes M1 GAS;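 also: secreted streptokinase activity via plasminogen activation per viability signal from cell pellet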
# T2 sequence (P10520 whole entry): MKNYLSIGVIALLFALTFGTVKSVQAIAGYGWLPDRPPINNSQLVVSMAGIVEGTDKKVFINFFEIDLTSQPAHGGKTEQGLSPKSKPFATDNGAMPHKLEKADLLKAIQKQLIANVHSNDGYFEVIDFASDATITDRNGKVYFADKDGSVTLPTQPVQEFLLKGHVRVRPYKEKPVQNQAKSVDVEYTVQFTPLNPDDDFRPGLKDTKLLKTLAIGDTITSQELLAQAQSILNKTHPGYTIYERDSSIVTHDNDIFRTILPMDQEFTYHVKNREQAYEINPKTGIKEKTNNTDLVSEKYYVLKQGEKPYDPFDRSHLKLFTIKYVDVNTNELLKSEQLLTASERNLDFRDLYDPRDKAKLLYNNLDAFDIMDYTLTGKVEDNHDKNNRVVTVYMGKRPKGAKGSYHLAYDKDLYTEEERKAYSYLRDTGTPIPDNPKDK
# [4] = target: T3, Zinc finger protein mex-5 (Caenorhabditis elegans, UniProt Q9XUB2); assay: MEX-5/TCR-2 RNA interaction inhibitors, dose response, biochemical, C. elegans, fluorescence polarization (AID 1960)
# T3 sequence (Q9XUB2 whole entry): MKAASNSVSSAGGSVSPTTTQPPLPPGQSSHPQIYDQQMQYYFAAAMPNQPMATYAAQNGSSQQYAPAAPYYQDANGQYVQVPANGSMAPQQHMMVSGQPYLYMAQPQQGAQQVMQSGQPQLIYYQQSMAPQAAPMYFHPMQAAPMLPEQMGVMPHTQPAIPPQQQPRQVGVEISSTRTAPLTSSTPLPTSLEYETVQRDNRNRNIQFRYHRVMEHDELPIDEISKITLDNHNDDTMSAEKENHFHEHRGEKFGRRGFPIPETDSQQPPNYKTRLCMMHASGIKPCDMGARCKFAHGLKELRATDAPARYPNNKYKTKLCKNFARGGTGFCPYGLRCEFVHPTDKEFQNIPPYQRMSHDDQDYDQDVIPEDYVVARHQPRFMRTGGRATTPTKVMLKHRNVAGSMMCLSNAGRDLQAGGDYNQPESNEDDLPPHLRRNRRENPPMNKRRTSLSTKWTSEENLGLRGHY
# [5] = Escherichia coli growth inhibition, dose response, counter-screen for MEX-5/POS-1 RNA-binding inhibitor project, luminescence, NEB5alpha (AID 1959); format: functional
# [6] = target: T4, RNA-binding protein pos-1 (Caenorhabditis elegans, UniProt G5EF15); assay: inhibitors of POS-1/mex-3 RNA binding, dose response, biochemical, fluorescence polarization (AID 1964);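 also: purified POS-1 fused to maltose binding protein made in E. coli; potency of compounds blocking POS-1 binding to fluorescent RNA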
# T4 sequence (G5EF15 whole entry): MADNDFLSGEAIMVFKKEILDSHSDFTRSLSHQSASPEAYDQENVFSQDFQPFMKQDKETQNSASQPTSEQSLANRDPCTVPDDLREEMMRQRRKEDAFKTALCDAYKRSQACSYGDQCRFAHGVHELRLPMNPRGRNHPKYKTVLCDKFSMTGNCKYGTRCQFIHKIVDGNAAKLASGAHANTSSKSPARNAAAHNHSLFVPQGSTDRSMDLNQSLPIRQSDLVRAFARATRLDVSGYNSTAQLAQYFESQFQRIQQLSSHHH
# [7] = M. tuberculosis H37Rv growth inhibitors, H37Rv strain (AID 1626); format: functional
# T1 sequence (Q07440 whole entry): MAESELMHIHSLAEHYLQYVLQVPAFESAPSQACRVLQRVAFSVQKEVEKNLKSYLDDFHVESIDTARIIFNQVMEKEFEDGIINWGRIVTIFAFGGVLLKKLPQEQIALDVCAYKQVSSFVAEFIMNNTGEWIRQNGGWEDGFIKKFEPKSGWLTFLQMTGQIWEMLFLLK
smiles,measurement,setting,value
Clc1ccc(-n2nnc(-c3cc4ccccc4nc3Cl)n2)cn1,IC50,Bcl-2-related protein A1 [1],> 100 µM (not active)
same,IC50,Bcl-2-related protein A1 [2],> 100 µM (not active)
Cc1ccc(C(=O)C2=C(O)C(=O)N(Cc3ccco3)C2c2cccc(Br)c2)o1 (centres undefined),EC50,Streptococcus,11.2 µM (active)
same,EC50,[3],6.16 µM (active)
same,EC50,Streptokinase A,> 150 µM (not active)
same,EC50,[4],35.6 µM (active)
same,EC50,[5],18.3 µM (inconclusive)
same,EC50,[6],> 300 µM (not active)
COc1ccc(OCCCC(=O)Nc2cccc(SC)c2)cc1,IC50,[7],> 100 µM (active)
